Source: patent US10759786B2, “1-tetrahydropyranylcarbonyl-2,3-dihydro-1H-indole compounds for treating cancer” (Eli Lilly and Company, priority 2016, dated 2020)

What was measured:
L55 tumors = experiment: L55 Humanized Tumor Model with hPBMC challenge; format: in vivo; settings: for tolerability (body weight): with or without hPBMCs, over the course of the study
From the text: Grow the human NSCLC cell line, L55, in RPMI 1640 medium supplemented with 10% fetal bovine serum. Harvest sub-confluent cells with trypsin and rinse twice with growth medium lacking serum. Initiate the growth of subcutaneous tumors by injecting 5×10^6 in a 1:1 mixture of HBSS and MATRIGEL® (BD Biosciences, Franklin Lakes, N.J.) in the rear flank of NOD.Cg-Prkdc^scidIl2rg^tm1Wjl/SzJ mice more commonly known as NOD scid gamma chain knockout mice (NSG) mice (The Jackson Laboratory, Bar Harbour, Me.), which lack T cells, B cells, NK cells, and are deficient in cytokine signaling. When the mean tumor volume reaches approximately 200-300 mm^3, randomize the animals by tumor size and body weight and place into their respective treatment groups as indicated. After randomization, challenge tumor-bearing mice with PBS alone (no PBMCs) or with PBS containing 1×10^7 human PBMCs into the tail vein of recipients.
(§1) Capture tumor size and body weight using Study Director. Estimate tumor volume (V) by using the formula: V=0.536×L×W^2 where L=larger measured diameter and W=smaller of the perpendicular diameter. Transform the tumor volume data to a log scale to equalize variance across time and treatment groups. Analyze the log volume data with a two-way repeated measures analysis of variance by time and treatment using the MIXED procedures in SAS software (Version 9.2). The correlation model for the repeated measures is Spatial Power. Compare treated groups to the control group at each time point. Use the MIXED procedure also separately for each treatment group to calculate adjusted means and standard errors at each time point. Both analyses account for the autocorrelation within each animal and for the loss of data that occurs when animals with large tumors are removed from the study early. Calculate relative changes in tumor volume (% T/C) using the tumor volume measurements taken nearest to the last day of dosing with Example 1A, using the formula % T/C=100×ΔT/ΔC, where T=mean tumor volume of the compound treated group, ΔT=mean tumor volume of the compound treated group minus the mean tumor volume on the baseline day, C=mean tumor volume of the control (vehicle) group, and ΔC=mean tumor volume of the control group minus the mean tumor volume on the baseline day. If ΔT<0, then a tumor regression value is calculated instead of % T/C whereby % Regression=100×ΔT/Tinitial such that Tinital=mean tumor volume on the baseline day.
(§2) Assess antitumor efficacy of Example 1A and LY3300054 alone, or in combination by measuring tumor volume by three dimensional caliper measurements twice a week during the course of the study. Measure body weight twice weekly during the course of the study, as a general indicator of tolerability.
(§3) Formulations for Example 1A and LY3300054: Formulate Example 1A on a weekly basis in 1% HEC/0.25% Tween 80/0.05% Antifoam and store at 4° C. Solublize LY3300054 in phosphate buffered saline and store at 4° C.
The L55 NCLC human cancer cell line is intrinsically resistant to the allo-response associated with the injection of hPBMCs. The goal of these studies is to assess the ability of compounds to potentiate the allo response allowing human T cells to target and restrict the growth of a human L55 tumors in a mouse that lacks an adaptive immune system (NSG mice). […]

Colon26 tumors = experiment: Mouse Syngeneic Colon26 Model; format: in vivo; settings: for changes in tumor volume (% T/C) / reduction in body weight compared to baseline: day 20
Procedure: Grow the mouse BALB/c-derived Colon26 colon cancer cell line in RPMI 1640 medium supplemented with 10 mM HEPES, […] sodium pyruvate, and 10% fetal bovine serum. Harvest sub-confluent cells with trypsin and rinse twice with complete growth medium lacking serum. Initiate subcutaneous tumors by injecting 1×10^6 cells resuspended in HBSS in the rear flank of immune-competent BALB/c mice (Envigo, Indianapolis, Ind.). Six days after tumor implantation, randomize animals based on body weight and place into their respective treatment groups using the number of animals per group as indicated.
as §1, §2, §3
Treat female BALB/c mice (n=10) bearing Colon26 tumors with Example 1A twice daily for 21 days by oral gavage at doses of 10, 50, and 100 mg/kg. Start administration of Example 1A six days after tumor implantation, and monitor tumor growth and body weight twice a week for the duration of the treatment period.

SKOV3 cells = experiment: Cell viability in SKOV3 cells (CELLTITER-GLO); format: cell-based
Procedure: The purpose of this assay is to evaluate the inhibition of the production of kynurenine, N-formyl-kynurenine and the depletion of tryptophan in IDO1 expressing cancer cells and assess whether compounds are overtly toxic to these cells. Exemplary compounds are tested for the inhibition of IDO1 activity in SKOV3 (ATCC, Cat # HTB-77), an ovarian cancer cell line that intrinsically expresses IDO1. Due to IDO1 expression, SKOV3 cells degrade tryptophan with the concomitant production of kynurenine and compounds are tested for their ability to inhibit the production of kynurenine, N-formyl-kynurenine and the depletion of tryptophan. Optionally, overt toxicity of compounds can be assessed by monitoring cell viability.
Plate SKOV3 cells, an IDO1-expressing ovarian cancer cell line, at 20,000 cells per well in 100 μL of McCoys 5A media (Gibco, Cat #16600-082) supplemented with non-essential amino acids (Gibco, Cat #11140-050), 1 mM sodium pyruvate (Gibco, Cat #11360-070), and 10% fetal bovine serum, complete media, in a 96 well tissue culture plate (BD Biosciences). Then, incubate cells for 16 hours in a 37° C. incubator with 5% CO2. […] Optionally, return original plate(s) to the incubator for an additional 24 hours and measure the viability of cells by adding an equal volume of CELLTITER-GLO® (Promega) and measure luminescence in an PERKIN ELMER® EnVision plate reader.

IDO1 = biological target: T1, IDO1 (Homo sapiens, UniProt P14902); experiment: In Vivo Target Inhibition Assay (SKOV3X tumors); settings: mouse, 12 hours after dosing, SKOV3X tumor-bearing mice, read-out: inhibition of kynurenine in tumor
T1 construct: an ovarian cancer cell line that intrinsically expresses IDO1; endogenous in cells; host or cells: SKOV3 (ATCC HTB-77) in culture; SKOV3X (Indiana University Research and Technology Center) as intraperitoneal tumors in athymic nude mice
From the text: The purpose of this assay is to evaluate the inhibition of kynurenine production and tryptophan depletion in cancer cells in vivo. SKOV3X (Indiana University Research and Technology Center), an ovarian cancer cell line, intrinsically expresses IDO1 and readily forms tumors in the peritoneal cavity of Athymic Nude-Foxn1^nu mice (Harlan). As a consequence of IDO1 expression, SKOV3X tumors locally deplete tryptophan with the concomitant production of high levels of kynurenine in the tumor microenvironment. The purpose of this assay is to measure the ability of test compounds to inhibit IDO1 evidenced by the clear reduction in kynurenine levels in the tumor.
Culture SKOV3X in McCoys 5A media (Gibco, Cat #16600-082) supplemented with non-essential amino acids (Gibco, Cat #11140-050), 1 mM sodium pyruvate (Gibco, Cat #1360-070) and 10% FBS and incubate at 37° C. in 5% CO2. Trypsinize and isolate cells from culture and resuspend cells in Hank's balanced salt solution (HBSS). Implant 2×10^6 SKOV3X cells into the intraperitoneal cavity of each Athymic Nude-Foxn1^nu mouse (Harlan). Approximately three weeks post-implantation, palpate animals to ensure tumor formation and randomize tumor-bearing mice into vehicle control and compound treatment groups. Administer compound formulated in vehicle containing 1% hydroxyethylcellulose (HEC) and 0.025% TWEEN® 80 and 0.05% Antifoam or vehicle alone by oral gavage. Generate time-course inhibition profile by dosing tumor-bearing animals with a single dose and collect plasma, liver, and tumor samples at 2, 4, 8, 12, and 24 hours post dose. Collect blood into EDTA-containing blood collection tubes (Greiner bio-one, Cat #450474) and centrifuge at 2365×g, isolate plasma, and freeze at −80° C. Isolate liver and tumor fragments, record weights and flash freeze and store at −80° C.
Prepare calibration standards for L-kynurenine and L-tryptophan by first generating stripped matrices, which are plasma and tissue homogenates depleted of L-kynurenine and L-tryptophan by dialysis. […]

[1] = 10 mg/kg twice daily oral gavage
[2] = 50 mg/kg twice daily oral gavage
[3] = 100 mg/kg twice daily oral gavage

T1 sequence (P14902 whole entry): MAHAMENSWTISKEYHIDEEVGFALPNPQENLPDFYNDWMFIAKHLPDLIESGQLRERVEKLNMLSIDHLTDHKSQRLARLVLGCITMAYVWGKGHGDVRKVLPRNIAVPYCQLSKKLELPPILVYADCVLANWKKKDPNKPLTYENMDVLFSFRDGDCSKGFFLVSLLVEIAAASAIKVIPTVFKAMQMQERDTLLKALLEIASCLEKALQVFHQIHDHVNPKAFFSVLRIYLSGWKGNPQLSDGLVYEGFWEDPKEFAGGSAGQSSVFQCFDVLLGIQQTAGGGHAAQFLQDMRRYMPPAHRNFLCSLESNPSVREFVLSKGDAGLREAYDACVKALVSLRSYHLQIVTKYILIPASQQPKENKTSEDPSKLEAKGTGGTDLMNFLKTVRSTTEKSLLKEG

Compound	% T/C (L55 tumors; 75 mg/kg twice daily oral for 21 days, presence of hPBMCs, day 41, vs vehicle control lacking hPBMCs)	tumor growth inhibition (L55 tumors; 75 mg/kg twice daily oral, absence of hPBMCs, compared to vehicle alone without PBMCs)	tolerability (body weight) (L55 tumors; Example 1A 75 mg/kg twice daily)	changes in tumor volume (% T/C) (Colon26 tumors; [1])	reduction in body weight compared to baseline (Colon26 tumors; [1])	changes in tumor volume (% T/C) (Colon26 tumors; [2])	reduction in body weight compared to baseline (Colon26 tumors; [2])	changes in tumor volume (% T/C) (Colon26 tumors; [3])	reduction in body weight compared to baseline (Colon26 tumors; [3])	tolerability (body weight changes) (Colon26 tumors; 10, 50 and 100 mg/kg twice daily for 21 days, compared to vehicle-treated mice)	concentration up to which cell proliferation is not inhibited (SKOV3 cells)	inhibition at 5 mg/kg (IDO1; 5 mg/kg single oral dose)	inhibition at 25 mg/kg (IDO1; 25 mg/kg single oral dose)	inhibition at 75 mg/kg (IDO1; 75 mg/kg single oral dose)	change in tumor volume (% T/C) (L55 tumors; 10 mg/kg intraperitoneal once a week for 4 weeks, hPBMCs, day 37, vs vehicle alone lacking PBMCs)	tolerability (body weight) (L55 tumors; LY3300054 10 mg/kg once a week)
C[C@@H](NC(=O)c1ccc(F)cc1)c1ccc2c(c1)CCN2C(=O)C1CCOCC1 (single isomer, unassigned) [Example 1A]	47.6%	did not result in significant tumor growth inhibition	No significant tolerability issues	17.5%	2.5%	31.2%	8%	62.6%	2.5%	no significant tolerability issues	≥ 10 µM	37%	59%	79%		
LY3300054: an antibody that binds human PD-L1, light and heavy chains defined by SEQ ID NOs															75.7%	No significant tolerability issues
